Source: article PMC9599461, “Stereoselectivity in the Membrane Transport of Phenylethylamine Derivatives by Human Monoamine Transporters and Organic Cation Transporters 1, 2, and 3” (Biomolecules, 2022)
Where “and” joins values, the source holds several entries; their conditions need not be identical. Equal entries are not always repeated. Values belong to the molecule of their own block, whether it stands above or below them.

What was measured:
DAT = DAT (Homo sapiens, UniProt Q01959); experiment: Stereoselective uptake into DAT-overexpressing HEK293 cells; conditions: for Clint ± SEM / Stereoselectivity Vmax / Stereoselectivity Km: DAT; for Clint ± SEM: quotient of vmax over Km; for Stereoselectivity Vmax / Stereoselectivity Km: ratio between enantiomers; for Stereoselectivity Vmax: given as for (R) or for 1; for Stereoselectivity Km: given as for (R) or for 1 (first-eluting); for selectivity ratio at 2 min: human, HEK293 cells stably overexpressing human DAT;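 for all read-outs here: intracellular accumulation measured by chiral HPLC-MS/MS in stably transfected HEK293 cells, normalized to total protein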
[1] = tested on: OCT2 wild-type versus A270S variant; experiment: Stereoselective uptake into OCT2 A270S variant-overexpressing HEK293 cells; conditions: human;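 note: uptake into HEK293 cells stably overexpressing human OCT2 variants, intracellular enantiomers quantified by chiral HPLC-MS/MS and normalized to total protein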
OCT2 = target: T1, OCT2 (Homo sapiens, UniProt O15244); experiment: Stereoselective uptake into OCT2 (wild-type)-overexpressing HEK293 cells; conditions: OCT2; for Clint ± SEM: quotient of vmax over Km; for selectivity ratio at 2 min: human, ratio between enantiomers
T1 sequence (O15244 1-555 S270A): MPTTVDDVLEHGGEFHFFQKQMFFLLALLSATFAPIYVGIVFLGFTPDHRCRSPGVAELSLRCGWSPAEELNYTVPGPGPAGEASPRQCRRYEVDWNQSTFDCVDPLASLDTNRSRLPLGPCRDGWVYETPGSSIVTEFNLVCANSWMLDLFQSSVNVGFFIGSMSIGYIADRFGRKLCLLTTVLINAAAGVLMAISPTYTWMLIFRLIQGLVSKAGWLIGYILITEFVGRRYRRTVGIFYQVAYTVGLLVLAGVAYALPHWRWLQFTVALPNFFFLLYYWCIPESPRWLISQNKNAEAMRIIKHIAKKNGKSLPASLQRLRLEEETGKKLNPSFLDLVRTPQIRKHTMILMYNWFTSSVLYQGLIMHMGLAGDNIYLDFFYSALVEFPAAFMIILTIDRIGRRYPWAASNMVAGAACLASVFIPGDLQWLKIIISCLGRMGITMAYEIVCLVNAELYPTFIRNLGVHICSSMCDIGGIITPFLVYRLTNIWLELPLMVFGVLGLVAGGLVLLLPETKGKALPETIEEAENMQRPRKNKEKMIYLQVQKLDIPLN

NET = NET (Homo sapiens, UniProt P23975); experiment: Stereoselective uptake into NET-overexpressing HEK293 cells; conditions: for Clint ± SEM / Stereoselectivity Vmax / Stereoselectivity Km: NET; for Clint ± SEM: quotient of vmax over Km; for Stereoselectivity Vmax / Stereoselectivity Km: ratio between enantiomers; for Stereoselectivity Vmax: given as for (R) or for 1; for Stereoselectivity Km: given as for (R) or for 1 (first-eluting); for selectivity ratio at 2 min: human, HEK293 cells stably overexpressing human NET;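 for all read-outs here: intracellular enantiomers quantified in cell lysates by chiral HPLC-MS/MS after a 2 min substrate incubation, with uptake normalized to total cellular protein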
OCT3 = target: T2, OCT3 (Homo sapiens, UniProt O75751); experiment: Stereoselective uptake into OCT3-overexpressing HEK293 cells; conditions: for Clint ± SEM / Stereoselectivity Vmax: OCT3; for Clint ± SEM: quotient of vmax over Km; for Stereoselectivity Vmax: ratio between enantiomers, given as for (S) or for 2; for selectivity ratio at 2 min: human, HEK293 cells stably overexpressing human OCT3;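 for all read-outs here: intracellular accumulation in HEK293 cells measured by chiral HPLC-MS/MS after a 2 min substrate exposure at 37 °C, uptake normalized to total protein (bicinchoninic acid assay)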
T2 sequence (O75751 1-556): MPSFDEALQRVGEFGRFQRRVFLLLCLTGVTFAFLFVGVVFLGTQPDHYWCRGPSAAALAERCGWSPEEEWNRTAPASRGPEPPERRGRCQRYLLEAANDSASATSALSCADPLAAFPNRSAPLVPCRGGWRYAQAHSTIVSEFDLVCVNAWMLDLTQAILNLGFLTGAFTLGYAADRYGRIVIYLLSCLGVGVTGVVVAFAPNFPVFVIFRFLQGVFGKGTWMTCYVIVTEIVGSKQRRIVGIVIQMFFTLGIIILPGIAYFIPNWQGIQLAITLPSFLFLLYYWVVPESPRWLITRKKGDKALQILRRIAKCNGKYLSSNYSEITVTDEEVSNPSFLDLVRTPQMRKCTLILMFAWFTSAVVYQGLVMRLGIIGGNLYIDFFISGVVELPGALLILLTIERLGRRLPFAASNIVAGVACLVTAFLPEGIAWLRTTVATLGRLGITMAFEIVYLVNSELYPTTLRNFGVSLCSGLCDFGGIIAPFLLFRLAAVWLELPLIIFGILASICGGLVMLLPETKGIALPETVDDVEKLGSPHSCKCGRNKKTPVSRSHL
Protocol: (§1) All transport experiments were carried out in HEK293 cells stably overexpressing human MATs or OCTs. […] All cells were regularly cultivated in DMEM supplemented with 10% (v/v) FCS, penicillin (100 U/mL) and streptomycin (100 μg/mL)and kept in culture for no longer than 30 passages.
(§2) For the uptake experiments, 300,000 cells were plated in poly-D-lysine precoated 24-well plates 48 h ahead of the transport experiment. On the day of experiment, cells were initially washed once with 37 °C pre-warmed HBSS+ (Hanks buffered salt solution supplemented with 10 mM HEPES) and subsequently incubated with the substrates dissolved in pre-warmed HBSS+ for exactly two minutes. Incubation was stopped by adding ice-cold HBSS+ followed by two washing steps. After this, cells were lysed with 80% acetonitrile containing 10 ng/mL milnacipran as internal standard for high-performance liquid chromatography coupled to tandem mass spectrometry (HPLC-MS/MS) analysis. For every experiment, two additional wells per cell line were lysed using RIPA buffer for protein quantification. Total protein was quantified using the bicinchoninic acid assay [42]. This was later used for normalization of the uptake data.
(§3) Intracellularly accumulated test substances were quantified by HPLC-MS/MS analysis using a Shimadzu Nexera HPLC system with a SIL-30AC autosampler, a CTO-20AC column oven, a LC-30AD pump, and a CBM-20A controller (Shimadzu, Kyoto, Japan). Stereoselective chromatography was carried out on a [sequence] CBH HPLC column (100 × 3 mm inner dimension with 5 μM particle size; Sigma-Aldrich, Darmstadt, Germany) with a corresponding 10 × 3 mm guard column. Reversed phased chromatography was carried out using an ammonium acetate (NH4Ac) buffered aqueous mobile phase with isopropyl alcohol (IPA) as organic solvent. […] The order of elution of the enantiomers was obtained from available reference literature [43] or by applying enantiopure reference compounds to the chiral HPLC. […] Given the structural similarity of the investigated substances and the fact that separation was performed on the same column with almost identical mobile phases, we assume that this order of elution for our compound set is always the (R)- before the (S)-enantiomer.
(§4) Detection was performed with an API 4000 tandem mass spectrometer (AB SCIEX, Darmstadt, Germany) operating in multiple-reaction-monitoring mode. Quantification was performed using the Analyst 1.6.2 software (AB SCIEX, Darmstadt, Germany) and quantified by comparison to standard curves with known concentrations.
(§5) All uptake data were normalized to protein content to account for variation in the number of seeded sells. Transporter-mediated net uptake was calculated by subtracting uptake into empty vector-transfected control cells from uptake into transporter-transfected cells. Kinetic parameters were then determined after non-linear regression following the Michaelis–Menten equation (v = vmax × [S]/(Km + [S])) using GraphPad Prism (Version 5.01 for Windows, GraphPad Software, La Jolla, CA, USA). Vmax refers to the maximum transport velocity and Km is defined as the substance concentration required to reach half of vmax. The intrinsic clearance Clint was calculated as the quotient of vmax over Km.

SERT = SERT (Homo sapiens, UniProt P31645); experiment: Stereoselective uptake into SERT-overexpressing HEK293 cells; conditions: for Clint ± SEM / Stereoselectivity Vmax / Stereoselectivity Km: SERT; for Clint ± SEM: quotient of vmax over Km; for Stereoselectivity Vmax / Stereoselectivity Km: ratio between enantiomers; for Stereoselectivity Vmax: given as for (R) or for 1; for Stereoselectivity Km: given as for (R) or for 1 (first-eluting); for selectivity ratio at 2 min: human, HEK293 cells stably overexpressing human SERT;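 for all read-outs here: uptake into HEK293 cells stably expressing human SERT over 2 min, enantiomers measured in cell lysate by chiral HPLC-MS/MS, normalized to total protein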
OCT1 = target: T3, OCT1 (Homo sapiens, UniProt O15245); experiment: Stereoselective uptake into OCT1-overexpressing HEK293 cells; conditions: OCT1; for Clint ± SEM: quotient of vmax over Km; for selectivity ratio at 2 min: human, ratio between enantiomers;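 for all read-outs here: enantiomers quantified inside cells by chiral HPLC-MS/MS, uptake normalized to total protein from bicinchoninic acid assay, substrates applied in HBSS+ buffer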
T3 sequence (O15245 1-554): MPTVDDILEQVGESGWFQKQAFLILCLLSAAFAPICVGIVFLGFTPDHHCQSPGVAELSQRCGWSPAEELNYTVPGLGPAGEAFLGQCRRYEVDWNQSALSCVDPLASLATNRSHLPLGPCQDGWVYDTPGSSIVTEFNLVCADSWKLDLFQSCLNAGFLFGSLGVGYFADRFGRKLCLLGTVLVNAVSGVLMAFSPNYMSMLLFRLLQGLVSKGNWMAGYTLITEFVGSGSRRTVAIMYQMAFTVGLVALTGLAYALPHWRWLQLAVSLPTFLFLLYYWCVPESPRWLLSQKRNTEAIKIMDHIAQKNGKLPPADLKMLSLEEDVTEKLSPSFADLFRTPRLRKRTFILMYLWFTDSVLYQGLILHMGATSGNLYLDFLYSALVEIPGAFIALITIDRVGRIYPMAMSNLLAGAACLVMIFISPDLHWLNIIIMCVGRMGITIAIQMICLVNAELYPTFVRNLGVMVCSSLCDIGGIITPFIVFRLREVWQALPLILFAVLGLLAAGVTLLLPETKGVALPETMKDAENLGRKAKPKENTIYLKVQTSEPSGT
Protocol: as §1, §2, §3, §4, §5

[2] = tested on: human neuroblastoma cells; design: method as in PMID 9085193; conditions: cited from earlier work
OCT2 (wild-type) = target: T4, OCT2 (wild-type) (Homo sapiens, UniProt O15244); experiment: Stereoselective uptake into OCT2 (wild-type)-overexpressing HEK293 cells; conditions: human, Stereoselectivity OCT2_WT, 100 μM racemic substance, two minutes; uptake ratio of enantiomers, given as for (S)
T4 sequence (O15244 1-555 S270A): T1 sequence (O15244 1-555 S270A)

OCT2 A270S variant = experiment: in vitro; conditions: human, Stereoselectivity OCT2_A270S, 100 μM racemic substance, two minutes; uptake ratio of enantiomers, given as for (S)
[3] = substrate: NC[C@H](O)c1ccc(O)cc1; experiment: cells, lysate or membranes; conditions: other: HEK293 cells overexpressing human OCT2; racemic substrate, two minutes; net uptake minus empty vector control; 37.0 °C
[4] = substrate: CNC[C@H](O)c1cccc(O)c1; experiment: cells, lysate or membranes; conditions: other: HEK293 cells overexpressing human OCT2; racemic substrate, two minutes; net uptake minus empty vector control; 37.0 °C
[5] = substrate: NCC(O)c1cccc(O)c1; experiment: cells, lysate or membranes; conditions: other: HEK293 cells overexpressing human OCT2; racemic substrate, two minutes; net uptake minus empty vector control; 37.0 °C
[6] = substrate: CNCC(O)c1ccc(O)c(OC)c1; experiment: cells, lysate or membranes; conditions: other: HEK293 cells overexpressing human OCT2; racemic substrate, two minutes; net uptake minus empty vector control; 37.0 °C
[7] = substrate: CNC[C@@H](O)c1ccc(O)cc1; experiment: cells, lysate or membranes; conditions: other: HEK293 cells overexpressing human OCT2; racemic substrate, two minutes; net uptake minus empty vector control; 37.0 °C
[8] = substrate: COc1cc(C(O)CN)ccc1O; experiment: cells, lysate or membranes; conditions: other: HEK293 cells overexpressing human OCT2; racemic substrate, two minutes; net uptake minus empty vector control; 37.0 °C
[9] = substrate: [H][C@](O)(CNC)c1ccc(O)cc1; experiment: cells, lysate or membranes; conditions: other: HEK293 cells overexpressing human OCT2; racemic substrate, two minutes; net uptake minus empty vector control; 37.0 °C
[10] = substrate: CNC[C@@H](O)c1cccc(O)c1; experiment: cells, lysate or membranes; conditions: other: HEK293 cells overexpressing human OCT2; racemic substrate, two minutes; net uptake minus empty vector control; 37.0 °C
[11] = substrate: CNCC(O)c1ccccc1; experiment: cells, lysate or membranes; conditions: other: HEK293 cells overexpressing human OCT2; racemic substrate, two minutes; net uptake minus empty vector control; 37.0 °C
[12] = HEK293 cells stably overexpressing human wild-type OCT2, Stereoselectivity ClInt, given as for (R) or for 1
[13] = HEK293 cells stably overexpressing human wild-type OCT2, Stereoselectivity Km, given as for (R) or for 1 (first-eluting)
[14] = HEK293 cells stably overexpressing human wild-type OCT2, Stereoselectivity Vmax, given as for (R) or for 1
[15] = HEK293 cells stably overexpressing human OCT1, Stereoselectivity ClInt, given as for (R) or for 1 (also 1.00-fold for 1/2)
[16] = HEK293 cells stably overexpressing human OCT1, Stereoselectivity Km, given as for (R) or for 1 (first-eluting)
[17] = HEK293 cells stably overexpressing human OCT1, Stereoselectivity Vmax, given as for (R) or for 1

Sequence of SERT (P31645 whole entry): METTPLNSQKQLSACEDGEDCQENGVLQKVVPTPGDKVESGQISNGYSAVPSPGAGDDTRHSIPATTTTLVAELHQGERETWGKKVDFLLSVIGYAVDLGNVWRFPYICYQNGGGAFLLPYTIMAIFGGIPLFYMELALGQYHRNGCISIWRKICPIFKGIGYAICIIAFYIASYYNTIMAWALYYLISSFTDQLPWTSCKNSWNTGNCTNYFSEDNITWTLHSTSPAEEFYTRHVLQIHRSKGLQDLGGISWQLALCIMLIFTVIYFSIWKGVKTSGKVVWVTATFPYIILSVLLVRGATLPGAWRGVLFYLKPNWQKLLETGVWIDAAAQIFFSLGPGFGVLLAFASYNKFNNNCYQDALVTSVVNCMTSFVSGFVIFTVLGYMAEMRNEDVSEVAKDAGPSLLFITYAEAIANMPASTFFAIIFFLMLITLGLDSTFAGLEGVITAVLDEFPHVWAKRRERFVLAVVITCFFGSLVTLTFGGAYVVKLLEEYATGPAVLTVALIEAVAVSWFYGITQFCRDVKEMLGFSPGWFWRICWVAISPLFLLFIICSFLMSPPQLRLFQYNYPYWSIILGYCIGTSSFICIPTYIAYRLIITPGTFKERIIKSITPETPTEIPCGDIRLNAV
Sequence of DAT (Q01959 whole entry): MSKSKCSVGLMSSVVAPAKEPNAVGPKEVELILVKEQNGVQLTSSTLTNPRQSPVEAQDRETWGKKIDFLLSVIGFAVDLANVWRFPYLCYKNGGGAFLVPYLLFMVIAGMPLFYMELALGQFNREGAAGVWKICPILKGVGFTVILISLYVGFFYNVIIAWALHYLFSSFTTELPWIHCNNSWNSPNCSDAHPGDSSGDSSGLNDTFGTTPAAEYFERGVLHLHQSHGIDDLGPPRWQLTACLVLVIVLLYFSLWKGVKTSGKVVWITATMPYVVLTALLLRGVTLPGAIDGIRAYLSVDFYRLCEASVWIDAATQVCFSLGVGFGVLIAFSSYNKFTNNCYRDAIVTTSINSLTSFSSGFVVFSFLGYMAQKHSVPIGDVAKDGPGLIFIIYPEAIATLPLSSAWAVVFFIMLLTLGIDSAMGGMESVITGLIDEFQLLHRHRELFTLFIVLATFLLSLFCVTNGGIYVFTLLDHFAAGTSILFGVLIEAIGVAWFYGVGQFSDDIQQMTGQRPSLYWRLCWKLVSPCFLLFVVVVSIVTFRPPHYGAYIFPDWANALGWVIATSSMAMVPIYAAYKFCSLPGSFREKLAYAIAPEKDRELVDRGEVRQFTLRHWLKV
Sequence of NET (P23975 whole entry): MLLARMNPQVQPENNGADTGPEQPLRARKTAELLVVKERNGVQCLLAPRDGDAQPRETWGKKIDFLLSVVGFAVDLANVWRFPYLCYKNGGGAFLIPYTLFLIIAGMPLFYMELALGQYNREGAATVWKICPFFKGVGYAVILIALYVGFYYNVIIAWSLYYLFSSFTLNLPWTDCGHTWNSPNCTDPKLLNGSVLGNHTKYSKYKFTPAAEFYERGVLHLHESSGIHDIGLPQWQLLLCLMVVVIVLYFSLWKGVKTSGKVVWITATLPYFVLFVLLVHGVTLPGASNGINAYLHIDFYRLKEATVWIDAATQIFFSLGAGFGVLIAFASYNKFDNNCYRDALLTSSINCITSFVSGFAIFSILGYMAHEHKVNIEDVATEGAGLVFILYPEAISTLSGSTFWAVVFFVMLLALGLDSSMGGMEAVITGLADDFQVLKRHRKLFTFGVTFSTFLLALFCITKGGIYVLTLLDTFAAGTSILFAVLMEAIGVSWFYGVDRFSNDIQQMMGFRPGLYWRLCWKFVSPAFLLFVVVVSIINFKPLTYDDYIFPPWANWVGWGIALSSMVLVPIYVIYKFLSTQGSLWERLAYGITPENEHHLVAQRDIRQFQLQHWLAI

- Clint ± SEM (DAT): 100 mL × g Protein^−1 × min^−1
- Stereoselectivity Vmax (DAT): 1.05 fold
- Stereoselectivity Km (DAT): 1.05 fold
- Clint ± SEM (OCT2): 39.6 mL × g Protein^−1 × min^−1
- Clint ± SEM (NET): 166 mL × g Protein^−1 × min^−1
- Stereoselectivity Vmax (NET): 1.30 fold
- Stereoselectivity Km (NET): 1.55 fold
- Clint ± SEM (OCT3): 38.8 mL × g Protein^−1 × min^−1
- Stereoselectivity Vmax (OCT3): 1.10 fold
- Clint ± SEM (SERT): 4.14 mL × g Protein^−1 × min^−1
- Stereoselectivity Vmax (SERT): 2.38 fold
- Stereoselectivity Km (SERT): 1.39 fold
- Clint ± SEM (OCT1): 4.53 mL × g Protein^−1 × min^−1
Molecule: NC[C@H](O)c1ccc(O)cc1 [(R)-Octopamine]
- selectivity ratio at 2 min (DAT): 1
- selectivity ratio at 2 min, 100 μM [1]: 1.2
- selectivity ratio at 2 min (OCT2; [12]): 1.31
- selectivity ratio at 2 min (OCT2; [13]): 1.63
- selectivity ratio at 2 min (OCT2; [14]): 2.14
- selectivity ratio at 2 min (NET): 1.19
- selectivity ratio at 2 min (OCT3): 1.38
- selectivity ratio at 2 min (SERT): 1.71
- selectivity ratio at 2 min (OCT1; [15]): 1.05
- selectivity ratio at 2 min (OCT1; [16]): 1.04
- selectivity ratio at 2 min (OCT1; [17]): 1.09

- Clint ± SEM (DAT): 100 mL × g Protein^−1 × min^−1
- Stereoselectivity Vmax (DAT): 1.05 fold
- Stereoselectivity Km (DAT): 1.05 fold
- Clint ± SEM (OCT2): 30.2 mL × g Protein^−1 × min^−1
- Clint ± SEM (NET): 198 mL × g Protein^−1 × min^−1
- Stereoselectivity Vmax (NET): 1.30 fold
- Stereoselectivity Km (NET): 1.55 fold
- Clint ± SEM (OCT3): 53.4 mL × g Protein^−1 × min^−1
- Stereoselectivity Vmax (OCT3): 1.10 fold
- Clint ± SEM (SERT): 2.42 mL × g Protein^−1 × min^−1
- Stereoselectivity Vmax (SERT): 2.38 fold
- Stereoselectivity Km (SERT): 1.39 fold
- Clint ± SEM (OCT1): 4.32 mL × g Protein^−1 × min^−1
Molecule: NC[C@@H](O)c1ccc(O)cc1 [(S)-Octopamine]
- selectivity ratio at 2 min (DAT): 1
- selectivity ratio at 2 min, 100 μM [1]: 1.17
- selectivity ratio at 2 min (OCT2; [12]): 1.31
- selectivity ratio at 2 min (OCT2; [13]): 1.63
- selectivity ratio at 2 min (OCT2; [14]): 2.14
- selectivity ratio at 2 min (NET): 1.19
- selectivity ratio at 2 min (OCT3): 1.38
- selectivity ratio at 2 min (SERT): 1.71
- selectivity ratio at 2 min (OCT1; [15]): 1.05
- selectivity ratio at 2 min (OCT1; [16]): 1.04
- selectivity ratio at 2 min (OCT1; [17]): 1.09

The remaining lines, values behind:

Molecule: CC1NCCc2cc(O)c(O)cc21 (centres unmarked) [Salsolinol]
- Cytotoxicity of (S)-enantiomer versus (R)-enantiomer [2]: almost two-fold higher
- selectivity ratio at 2 min, 100 μM (OCT2 (wild-type)): 1.06
- selectivity ratio at 2 min, 100 μM (OCT2 A270S variant): 1.1

B1: OCT2 (Homo sapiens; S270A) (protein)
chain: T1 sequence (O15244 1-555 S270A)
- Km [3]: 636 µM
- Vmax [3]: 25182 pmol × mg Protein^−1 × min^−1
- Km [4]: 212 µM
- Vmax [4]: 6263 pmol × mg Protein^−1 × min^−1
- Km [5]: 911 µM and 582 µM
- Vmax [5]: 33143 pmol × mg Protein^−1 × min^−1 and 15157 pmol × mg Protein^−1 × min^−1
- Km [6]: 54.7 µM and 68.1 µM
- Km [7]: 214 µM
- Vmax [7]: 5307 pmol × mg Protein^−1 × min^−1
- Km [8]: 464 µM and 613 µM
- Vmax [8]: 2747 pmol × mg Protein^−1 × min^−1 and 5665 pmol × mg Protein^−1 × min^−1
- Km [9]: 443 µM
- Vmax [9]: 10877 pmol × mg Protein^−1 × min^−1
- Km [10]: 112 µM
- Vmax [10]: 3068 pmol × mg Protein^−1 × min^−1
- Km [11]: 12.8 µM and 19.3 µM
- Vmax [11]: 329 pmol × mg Protein^−1 × min^−1 and 261 pmol × mg Protein^−1 × min^−1
